# Measurements as given in US7273882B2, “Aminoacetamide acyl guanidines as β-secretase inhibitors” (priority 2006, dated 2007).
# Biological target: T1, BACE1 enzyme (Homo sapiens, UniProt P56817)
# T1 construct: was derived from HEK293 cells; endogenous in cells; washed 48,000 x g pellet of the cell homogenate
# Experiment: Radioligand displacement (binding) assay with radiolabeled BACE inhibitor on HEK293-9B.A1 cell homogenate
# Settings: not given
# From the text: There are a number of methods by which inhibitors of the BACE enzyme can be identified experimentally. The enzyme can be obtained from membrane samples from natural tissues or cultured cells or can be expressed recombinantly in a host cell by well known methods of molecular biology. The whole enzyme or a portion thereof can be expressed, for example, in bacterial, insect or mammalian cells to obtain a catalytically active enzyme species. The enzymatic activity and/or ligand binding capability of the enzyme can be assessed within these membrane samples, or the enzyme can be purified to varying extents. As an illustrative example, the nucleic acid sequence encoding the pro and catalytic domains of human BACE can be appended on the 5′ end with an untranslated and signal sequence from the gene for acetylcholinesterase, and on the 3′ end with a sequence encoding a poly-histidine tag. This cDNA can then be expressed in Drosophila melanogaster S2 cells in which the signal and pro sequences of the transcribed/translated protein are removed by cellular proteases and the catalytic domain, appended by a C-terminal poly-histidine tag, is secreted out into the cellular medium. The enzyme can then be purified from the culture medium by nickel affinity chromatography by methods well known to those trained in the art [Mallender, W. et al., (2001) “Characterization of recombinant, soluble beta-secretase from an insect cell expression system.” Mol. Pharmacol. 59: 619-626]. Similar strategies for expressing and purifying various forms of BACE in bacterial, mammalian and other cell types would be known to one skilled in the art., A preferred method for determining the potency of a test compound in binding to the BACE enzyme is by monitoring the displacement of a suitable radioligand.
# Radioligand displacement assays with a radiolabeled BACE inhibitor (WO 2004 013098, compound 3, where the methoxy group is substituted for C(^3H)3) were carried out using standard methods (Keen, M. (1999) in Receptor Binding Techniques (Walker, J. M. ed) p. 106 Humana Press, Totowa, N.J.). The HEK293-9B.A1 cell line, which overexpresses the BACE1 enzyme, was derived from HEK293 cells (Simmons, N. L. (1990) A cultured human renal epithelioid cell line responsive to vasoactive intestinal peptide. Exp. Physiol. 75:309-19.) by RAGE™ (Harrington, J. J. et al. (2001) Creation of genome-wide protein expression libraries using random activation of gene expression. Nat. Biotechnol. 19:440-5.; U.S. Pat. Nos. 6,410,266 and 6,361,972). T225 flask cultures of HEK293-9B.A1 were grown to 80% confluency in DMEM supplemented with 2 mM L-glutamine, 10 μg/ml penicillin, 10 μg/ml streptomycin, 3 μg/ml puromycin, 100 nM methotrexate, and 10% fetal bovine serum (Invitrogen, Carlsbad, Calif.), harvested, and resuspended at 2×10^8 cells per 10 ml of lysis buffer consisting of 50 mM HEPES pH 7.0 containing a protease inhibitor cocktail of AEBSF 104 μM, aprotinin 80 nM, leupeptin 2 μM, bestatin 4 μM, pepstatin A 1.5 μM, and E-64 1.4 μM (0.1% of protease inhibitor cocktail P8340, Sigma-Aldrich, St. Louis, Mo.) at 4° C. The resuspended cells were homogenized using a Polytron (Brinkman, Westbury, N.Y.) at setting 6 for 10 sec., then centrifuged at 48,000×g for 10 min. The resulting pellet was washed by repeating the resuspension, homogenization and centrifugation steps. The final pellet was resuspended in buffer at 4° C. to yield a total protein concentration of 5 mg/ml, then aliquots were frozen in liquid nitrogen for further storage at −70° C. Immediately before carrying out a binding assay, an aliquot of cell homogenate was thawed and diluted to a concentration of 100 μg/ml in assay buffer consisting of 50 mM HEPES pH 5.0 and 0.1% CHAPSO. […]
# T1 sequence (P56817 46-501): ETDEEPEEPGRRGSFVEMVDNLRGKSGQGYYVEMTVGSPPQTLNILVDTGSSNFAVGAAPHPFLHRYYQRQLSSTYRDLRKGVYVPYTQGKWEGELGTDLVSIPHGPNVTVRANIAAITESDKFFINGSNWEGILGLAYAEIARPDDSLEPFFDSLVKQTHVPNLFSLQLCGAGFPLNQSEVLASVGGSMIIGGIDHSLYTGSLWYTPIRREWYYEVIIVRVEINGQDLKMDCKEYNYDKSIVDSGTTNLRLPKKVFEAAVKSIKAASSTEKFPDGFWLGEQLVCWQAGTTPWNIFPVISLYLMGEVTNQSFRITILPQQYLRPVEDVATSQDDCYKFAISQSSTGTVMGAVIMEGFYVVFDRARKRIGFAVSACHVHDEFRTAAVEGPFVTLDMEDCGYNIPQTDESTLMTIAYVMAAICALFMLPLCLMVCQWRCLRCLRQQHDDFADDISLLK
row,Compound,IC50 [nM]
1,Cc1noc(-c2ccccc2)c1C(=O)/N=C(\N)NCc1cc(Cl)c(N)c(Cl)c1 [Example 22],100 to 1000
2,COc1ccc(-c2n[nH]c(C)c2C(=O)N=C(N)NCc2cc(Cl)c(N)c(Cl)c2)cc1 [Example 132],100 to 1000
3,COc1ccc(-c2nsc(C)c2C(=O)NC(N)=NCc2cc(C)c(NC(C)=O)c(Cl)c2)cc1 [Example 144],< 100
4,"COc1ccc(-c2noc(C)c2C(=O)/N=C(/N)NCc2cc(Cl)c(N)c(Br)c2)cc1 [Example 148, N-((3-Bromo-4-amino-5-chlorobenzylamino)(amino)methylene)-3-(4-methoxyphenyl)-5-methylisoxazole-4-carboxamide]",100 to 1000
5,"COc1ccc(-c2nsc(C)c2C(=O)/N=C(/N)NCc2cc(Cl)c(N)c(Cl)c2)cc1 [Example 149, N-((4-amino-3,5-dichlorobenzylamino)(amino)methylene)-3-(4-methoxyphenyl)-5-methylisothiazole-4-carboxamide]",< 100
6,"COc1ccc(-c2nsc(C)c2C(=O)/N=C(/N)NCc2cc(Cl)c(N)c(Br)c2)cc1 [Example 150, N-((3-Bromo-4-amino-5-chlorobenzylamino)(amino)methylene)-3-(4-methoxyphenyl)-5-methylisothiazole-4-carboxamide]",< 100
7,"COC/C=C/c1cc(Cl)cc(CN/C(N)=N/C(=O)c2c(-c3ccc(OC)cc3)noc2C)c1 [Example 152, N-((3-chloro-5-((E)-3-methoxyprop-1-enyl)benzylamino)(amino)methylene)-3-(4-methoxyphenyl)-5-methylisoxazole-4-carboxamide]",100 to 1000
8,"COC/C=C/c1cc(CN/C(N)=N/C(=O)c2c(-c3ccc(OC)cc3)noc2C)cc(Cl)c1N [Example 153, N-((4-amino-3-chloro-5-((E)-3-methoxyprop-1-enyl)benzylamino) (amino)methylene)-3-(4-methoxyphenyl)-5-methylisoxazole-4-carboxamide]",< 100
9,"COC/C=C/c1cc(CN/C(N)=N/C(=O)c2c(-c3ccc(OC)cc3)nsc2C)cc(Cl)c1N [Example 154, N-((4-amino-3-chloro-5-((E)-3-methoxyprop-1-enyl)benzylamino) (amino)methylene)-3-(4-methoxyphenyl)-5-methylisothiazole-4-carboxamide]",< 100
10,COc1ccc(-c2noc(C)c2C(=O)N=C(N)NCc2cc(Cl)cc(C=CCCO)c2)cc1 [Example 168],100 to 1000
11,CCOC(=O)NCc1cc(Cl)cc(CN/C(N)=N/C(=O)c2c(-c3ccc(OC)cc3)noc2C)c1 [Example 203],100 to 1000
12,"COc1ccc(-c2nsc(C)c2C(=O)/N=C(\N)NCc2cc(Cl)cc(CNC(=O)/C=C/c3ccccc3)c2)cc1 [Example 237, N-(((E)-3-chloro-5-(cinnamamidomethyl)benzylamino)(amino)methylene)-3-(4-methoxyphenyl)-5-methylisothiazole-4-carboxamide]",< 100
13,"COc1ccc(-c2nsc(C)c2C(=O)/N=C(\N)NCc2cc(Cl)c(NC(C)=O)c(Cl)c2)cc1 [Example 279, (E)-N-((4-acetamido-3,5-dichlorobenzylamino)(amino)methylene)-3-(4-methoxyphenyl)-5-methylisothiazole-4-carboxamide]",< 100

# Same assay, conditions: radioligand displacement, HEK293-9B.A1 cell homogenate overexpressing BACE1; read-out: Activity Rating (activity based on IC50 values)
row,Compound,IC50 [nM]
1,"COc1ccc(-c2noc(C)c2C(=O)/N=C(\N)NCc2cc(Cl)c(NC(=O)CN(C)C)c(Cl)c2)cc1 [Example 280, (E)-N-((3,5-dichloro-4-(2-(dimethylamino)acetamido)benzylamino)(amino)methylene)-3-(4-methoxyphenyl)-5-methylisoxazole-4-carboxamide]",< 100
2,COc1ccc(-c2nsc(C)c2C(=O)/N=C(\N)NCc2cc(Cl)c(NC(=O)CN(C)C)c(Cl)c2)cc1 [Example 327],< 100
